Earlier results on four compounds are cited in US20250041332A1, “SYSTEMIC INJECTION OF SUPERHEATED PERFLUOROCARBON EMULSION TO IMPROVE VENTILATION AND REDUCE VENTILATOR-INDUCED LUNG INJURY” (THE BOARD OF REGENTS OF THE UNIVERSITY OF TEXAS SYSTEM, priority 2021, published 2025).

Like-named read-outs stand apart in the source and are kept apart here.

The conditions of series [1]: intravenous.

In the case of `FC(F)(F)C(F)(F)C(F)(F)C(F)(F)C(F)(F)C(F)(F)C(F)(F)C(F)(F)Br` [PFOB, perfluorooctyl bromide], the “Time in which half the dose is recovered from the exhaled gas” value in series [1] is 3 to 12 days.

As to `FC(F)(F)C(F)(F)C(F)(F)F` [perfluoropropane], the Vapor pressure entry (at 21.1° C.) is recorded as “about 792 kPa”.

With `FC(F)(F)C(F)(F)C(F)(F)C(F)(F)C(F)(F)F` [perfluoropentane], the Vapor pressure entry (at 25° C.) is given as “about 83.99 kPa”. `FC(F)(F)C(F)(F)C(F)(F)C(F)(F)F` [perfluorobutane]: the Vapor pressure entry (at 25° C.) was “about 330.3 kPa” and the Vapor pressure result (temperature not given) is listed as “approximately 330 kPa”.
